The values that follow are results of earlier work, collected in patent publication US4177199A, “Silver salts of phosphanilic acid” (Bristol-Myers Company, priority 1978, dated 1979).

For one data set, the system named is Ps. fluorescens. The conditions noted are these: mice infected with Ps. fluorescens.
For data set [1] the following is noted: by admixture or salt formation.
The next data set has as its system S. typhosa. As to conditions: mice infected with S. typhosa.
Data set [2] deals with experimental tuberculosis.
For data set [3], the system named is a variety of bacterial species.
Another data set deals with Plasmodium berghei. As to conditions: mice infected with Plasmodium berghei.
The conditions of data set [4]: laboratory animals.
The conditions of data set [5]: laboratory animals. This is another data set of the same source.
The test system of another data set is Histoplasma capsulatum. As to conditions: mouse, in vivo, iv.

With `Nc1ccc(P(=O)(O)O)cc1` [phosphanilic acid], the “efficacy in vivo in infected mice” value in the data set on Ps. fluorescens, in the data set with S. typhosa and in the data set with Plasmodium berghei was “effective” each time. In data set [1], the “potentiation of various tetracycline antibiotics” value was “potentiation”. Also, the “effect in vivo against experimental tuberculosis” value in data set [2] is recorded as “no effect”. Moreover, the “in vitro activity among compounds tested” value in data set [3] (aromatic phosphonic and phosphinic acids) was “generally the most active of the compounds tested”. Also, the “activity compared with sulfathiazole” value in data set [3] (molar basis) is given as “approached that of sulfathiazole”. The “tubercularstatic activity in vitro” value with tuberculosis was “good”. Also, the toxicity result in data set [4] is on record as “low”. Besides, the absorption result in [5] is recorded as “poor”. The “protective effect against Histoplasma capsulatum infection” value with Histoplasma capsulatum is listed as “some protective effect”.
